Several values for one entry are separate records, joined by “and”; a condition that tells them apart may be missing. Identical values can stand only once.
Key:
[1] = tested on: 7 patient-derived GSC lines and U87; test: Dose-titration cell viability assay, whole panel; assay type: cell-based; settings: Homo sapiens; 7 GSC lines and U87; 3-5 days; read-out: cellular IC50 in all lines
Description: QST (JNJ-26481585) is a second-generation hydroxamic acid harboring remarkable selectivity toward class I HDACs, with a biochemical IC50 of 0.1 nM for HDAC1 ([13]). […] To determine the cytotoxic effects of QST, we performed a dose-titration cell viability assay in 7 patient-derived GSC lines (BT145, GB187, GB239, GB282, GB71, GB82, and GB126) and 1 long-term serum-grown human GBM cell line (U87). Because GBMs display a high degree of intratumoral heterogeneity, we used GSCs derived from both primary and recurrent GBMs that harbored distinct genetic mutations or aberrations, growth rates, MGMT promoter methylation status, and gene expression profiles (Supplemental Figure 1; supplemental material available online with this article; https://doi.org/10.1172/jci.insight.167081DS1). Cell lines were treated with various concentrations of QST (10–1000 nM), and cell viability was measured 3–5 days later (Figure 1, A and B). […]
GSCs were seeded in laminin-coated tissue culture–treated 96-well plates (clear bottom, white plate; Corning) at a density of 1000–5000 cells per well (cell line dependent) in GSC media. […] Following treatment with QST, cells were grown for 3 to 5 days (cell line dependent), and cell viability was measured and quantified. […]

[2] = Body weight / tolerability in non-tumor-bearing mice; assay type: in vivo, athymic nude mice; settings: for weight of normal nude mice during QST treatment: QST 10 mg/kg, individual mice

For `Cn1cc(CNCC2CCN(c3ncc(C(=O)NO)cn3)CC2)c2ccccc21` [QST, quisinostat], the IC50 [1] was 50 to 100 nM, the “tolerability (weight loss)” value ([2]; 10 mg/kg IP MWF for 2 weeks, non-tumor-bearing athymic nude mice) was “well tolerated” and the “weight of normal nude mice during QST treatment” value ([2]; treatment day 1) was 28.1 g (2×) and 28.4 g and 26.7 g and 26.2 g and 20.2 g. The “weight of normal nude mice during QST treatment” value ([2]; treatment day 2) was 27.9 g and 27.4 g and 26 g and 26.7 g and 20.4 g and 27.5 g, the “weight of normal nude mice during QST treatment” value ([2]; treatment day 3) was 27.4 g and 27.9 g and 25.6 g and 27.2 g and 20.3 g and 27.8 g and the “weight of normal nude mice during QST treatment” value ([2]; treatment day 4) was 28.1 g and 27.7 g and 25.7 g and 27 g (2×) and 20.8 g. For the same compound, the “weight of normal nude mice during QST treatment” value ([2]; treatment day 5) was 27.5 g and 27.4 g and 26.5 g and 27.1 g (2×) and 20.3 g and the “weight of normal nude mice during QST treatment” value ([2]; treatment day 6) was 27.4 g and 27 g and 26.9 g and 27.2 g and 20.2 g and 27.1 g.

Reference: article PMC10721329, “Quisinostat is a brain-penetrant radiosensitizer in glioblastoma” (JCI Insight, 2023)
